Measurements: EP0013067A1, “Bicyclic beta-lactam antibacterial agents, their use in pharmaceutical compositions, processes for their preparation and intermediates for use in such processes” (BEECHAM GROUP PLC, priority 1978, dated 1980)

Key:
Experiment in all cases: MIC, microtitre using Nutrient broth
Type in all cases: cell-based
[1] = test system: Pseudomonas aeruginosa A; settings: Pseudomonas aeruginosa A; Microtitre using nutrient broth; inoculum 0.001 ml of a 10^-2 dilution for G + ve bacteria or a 10^-4 dilution for G - ve organisms; read-out: MIC Broth
From the text: (§1) The ninimum inhibitory concentrations (MIC) cf this compound required to inhibit the growth of various bacteria are tabulated balow: […]

[2] = test system: Staphylococcus aureus Russell; settings: Staphylococcus aureus Russell; Microtitre using nutrient broth; inoculum 0.001 ml of a 10^-2 dilution for G + ve bacteria or a 10^-4 dilution for G - ve organisms; read-out: MIC Broth
From the text: as §1

[3] = test system: Escherichia coli JT 39; settings: JT39; Escherichia coli JT 39; Microtitre using nutrient broth; inoculum 0.001 ml of a 10^-2 dilution for G + ve bacteria or a 10^-4 dilution for G - ve organisms; read-out: MIC Broth
From the text: as §1

[4] = test system: Klebsiella aerogenes A; settings: Klebsiella aerogenes A; Microtitre using nutrient broth; inoculum 0.001 ml of a 10^-2 dilution for G + ve bacteria or a 10^-4 dilution for G - ve organisms; read-out: MIC Broth
From the text: as §1

[5] = test system: Escherichia coli 0111; settings: Microtitre using nutrient broth, inoculum 0.001 ml of a 10^-2 dilution for G + ve bacteria or a 10^-4 dilution for G - ve organisms
From the text: as §1

[6] = test system: Proteus mirabilis C977; settings: Proteus mirabilis C977; Microtitre using nutrient broth; inoculum 0.001 ml of a 10^-2 dilution for G + ve bacteria or a 10^-4 dilution for G - ve organisms; read-out: MIC Broth
From the text: as §1

[7] = test system: Staphylococcus aureus Oxford; settings: Staphylococcus aureus Oxford; Microtitre using nutrient broth; inoculum 0.001 ml of a 10^-2 dilution for G + ve bacteria or a 10^-4 dilution for G - ve organisms; read-out: MIC Broth
From the text: as §1

[8] = test system: Enterobacter cloacae N1; settings: Microtitre using nutrient broth, inoculum 0.001 ml of a 10^-2 dilution for G + ve bacteria or a 10^-4 dilution for G - ve organisms
From the text: as §1

[9] = test system: Staphylococcus aureus 1517; settings: inoculum 0.001 ml of a 10^-2 dilution for G + ve bacteria or a 10^-4 dilution for G - ve organisms
From the text: as §1

SMILES	MIC [1]	MIC [2]	MIC [3]	MIC [4]	MIC [5]	MIC [6]	MIC [7]	MIC [8]	MIC [9]
O=C(O)C1=C(CO)SC2CC(=O)N12 (stereo not drawn) [compound 19, Sodium 2-Hydroxymethyl penem-3-carboxylate]	62 µg/mL	8 µg/mL	62 µg/mL	31 µg/mL	31 µg/mL	62 µg/mL	4 µg/mL	–	–
CC(=O)OCC1=C(C(=O)O)N2C(=O)CC2S1 (stereo not drawn) [compound 21, Sodium 2-Acetoxymethyl penem-3-carboxylate]	500 µg/mL	8 µg/mL	31 µg/mL	8 µg/mL	8 µg/mL	8 µg/mL	–	62 µg/mL	8 µg/mL
